Results on 23 compounds are retold here after patent publication US7482379B2, “Propenoyl hydrazides” (priority 2004, dated 2009).

The target in one experiment is S. mansoni legumain (Schistosoma mansoni, UniProt P09841, N192C). The experiment can be described thus: S. mansoni legumain (SmAE) inhibition assay. It counts as biochemical. Here is the method:
Studies with the propenoyl hydrazides using the schistosome legumain […], (Schistosoma mansoni asparaginyl endopeptidase) were also performed. […] The actual active site enzyme concentration is unknown. The lyophilized enzyme ([…]) was reconstituted in 1.5 mL 0.5 M sodium acetate, pH 4.5 containing 4 mM DTT, and left to stand at 37° C. for 3-4 hours to allow for auto-activation of the zymogen. In a black 96-well microtiter plate, 50 μL of activated enzyme was added to an equal volume of 0.1 M citrate-phosphate buffer pH 6.8 containing 4 mM DTT. Inhibitor stock solutions (20 mM) were prepared in DMSO. Serial dilutions (using water) of inhibitor were added (as 1 μL aliquots) to yield concentrations of between 2 and 0.00002 μM inhibitor. […] After incubating various inhibitor concentrations with enzyme, 100 μL of the same buffer containing 20 μM substrate (Cbz-Ala-Ala-Asn-AMC) was added to the wells and the reaction monitored at room temperature with linear kinetics up to 20 minutes. Inhibitors are tested in duplicate. A plot of the RFU/min versus the inhibitor concentration [μM] permitted calculation of an IC50 value and estimation of the kobs/[I].

In another experiment the target is T1, Caspase-7 (Homo sapiens, UniProt P55210).
T1 sequence (P55210 24-198 limits assumed): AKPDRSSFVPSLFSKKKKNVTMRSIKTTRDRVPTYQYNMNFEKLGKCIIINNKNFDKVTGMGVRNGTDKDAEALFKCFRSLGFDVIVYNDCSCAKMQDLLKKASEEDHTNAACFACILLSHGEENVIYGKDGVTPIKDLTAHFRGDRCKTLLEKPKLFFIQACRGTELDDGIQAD
T1 sequence (P55210 207-303 limits assumed): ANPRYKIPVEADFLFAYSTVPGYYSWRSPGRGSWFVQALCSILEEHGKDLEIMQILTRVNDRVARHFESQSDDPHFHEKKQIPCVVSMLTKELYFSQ
The experiment can be described thus: Caspase-7 progress curve inhibition assay. To be noted: second-order rate constant; Ac-DEVD-AMC substrate; Pipes buffer pH 7.2.

The mark [1] stands for this setting: S. mansoni legumain, 20 min preincubation, Cbz-Ala-Ala-Asn-AMC substrate.

Like-named read-outs stand apart in the source and are kept apart here.

Sequence of S. mansoni legumain (P09841 32-291 N192C): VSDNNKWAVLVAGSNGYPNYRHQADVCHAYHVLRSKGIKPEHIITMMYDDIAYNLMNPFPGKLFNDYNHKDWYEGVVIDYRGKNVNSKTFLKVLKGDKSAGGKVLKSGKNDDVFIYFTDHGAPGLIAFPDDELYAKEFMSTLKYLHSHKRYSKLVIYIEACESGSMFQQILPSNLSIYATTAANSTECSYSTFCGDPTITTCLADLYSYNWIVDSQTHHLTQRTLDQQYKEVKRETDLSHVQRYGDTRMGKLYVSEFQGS

`C[C@H](NC(=O)OCc1ccccc1)C(=O)N[C@@H](C)C(=O)NN(CC(N)=O)C(=O)/C=C/C(=O)N(Cc1ccccc1)Cc1ccc2ccccc2c1` showed a concentration for half-maximal inhibition (IC50) against S. mansoni legumain of 0.07 µM. Also, at S. mansoni legumain (read-out: kobs/[I]), the kinact/KI worked out at 6100 M⁻¹ s⁻¹.

`C[C@H](NC(=O)OCc1ccccc1)C(=O)N[C@@H](C)C(=O)NN(CC(N)=O)C(=O)/C=C/C(=O)N1CCCc2ccccc21` (relative stereo) [N^2—(N-Benzyloxycarbonylalanylalanyl)-N^1-carbamoylmethyl-N^1-trans-(3-(3,4-dihydro-2H-quinolin-1-yloxo)propenoyl)hydrazine]: on S. mansoni legumain (S. mansoni legumain, 20 min preincubation, Cbz-Ala-Ala-Asn-AMC substrate, read-out: IC50), the IC50 was 0.2 µM. As for `C/C=C/C=C/C(=O)N(CC(=O)O)NC(=O)[C@@H](NC(=O)OCc1ccccc1)C(C)C` (stereo in doubt) [Cbz-Val-AAsp-CH═CH—CH═CH—CH3, N^2—(N-Benzyloxyearbonylvalyl)-N^1-carboxymethyl-N^1-trans-(hexa-2,4-dienoyl)hydrazine], the “k2 Caspase-7” value at Caspase-7 turned out to be 56 M⁻¹ s⁻¹. `CCOC(=O)C=CC(=O)N(CC(N)=O)NC(=O)C(C)NC(=O)C(C)NC(=O)CCCCC1SCC2NC(=O)NC21` (stereo not drawn) [Biotinyl-Ala-Ala-AAsn-CH═CH—COOEt] displayed an IC50 against S. mansoni legumain of 0.01 µM. Still for that read-out and setting: the figure for `C[C@H](NC(=O)OCc1ccccc1)C(=O)N[C@@H](C)C(=O)NN(CC(N)=O)C(=O)/C=C/c1ccco1` [Cbz-Ala-Ala-AAsn-CH═CH-2-furyl, N^2—(N-Benzyloxycarbonylalanylalanyl)-N^1-carbamoylmethyl-N^1-trans-(3-(2-furyl)propenoyl)hydrazine] is > 2 µM; for `C[C@H](NC(=O)OCc1ccccc1)C(=O)N[C@@H](C)C(=O)NN(CC(N)=O)C(=O)/C=C/c1cccnc1` [Cbz-Ala-Ala-AAsn-CH═CH-3-Py, N^2—(N-Benzyloxycarbonylalanylalanyl)-N^1-carbamoylmethyl-N^1-trans-(3-(3-pyridyl)propenoyl)hydrazine] it is > 2 µM. As to `CC=CC=CC(=O)N(CC(N)=O)NC(=O)C(C)NC(=O)C(C)NC(=O)OCc1ccccc1` (stereo not drawn) [Cbz-Ala-Ala-AAsn-CH═CHCH═CHCH3, N^2—(N-Benzyloxycarbonylalanylalanyl)-N^1-carbamoylmethyl-N^1-trans-trans-hexa-2,4-dienoylhydrazine], the IC50 at S. mansoni legumain (setting [1]) is > 2 µM.

At S. mansoni legumain, `C[C@H](NC(=O)OCc1ccccc1)C(=O)N[C@@H](C)C(=O)NN(CC(N)=O)C(=O)/C=C/C(=O)N1CC=C(c2ccccc2)CC1` [Cbz-Ala-Ala-AAsn-CH═CH—CO-(4-Ph-Py), N^2—(N-Benzyloxycarbonylalanylalanyl)-N^1-carbamoylmethyl-N^1-trans-(3-(4-phenyl-5,6-dihydro-2H-pyridin-1-yloxo)propenoyl)hydrazine] came in with an IC50 of 0.75 µM. On the same count and under the same terms, the figure for `C[C@H](NC(=O)OCc1ccccc1)C(=O)N[C@@H](C)C(=O)NN(CC(N)=O)C(=O)/C=C/C(=O)N1CCCCC1` [Cbz-Ala-Ala-AAsn-CH═CH—CO-Pip, N^2—(N-Benzyloxycarbonylalanylalanyl)-N^1-carbamoylmethyl-N^1-trans-(3-(1-piperidyloxo)propenoyl)hydrazine] is 1 µM; for `C[C@H](NC(=O)OCc1ccccc1)C(=O)N[C@@H](C)C(=O)NN(CC(N)=O)C(=O)/C=C/C(=O)N1Cc2ccccc2C1` [Cbz-Ala-Ala-AAsn-CH═CH—CO-isoindoline, N^2—(N-Benzyloxycarbonylalanylalanyl)-N^1-carbamoylmethyl-N^1-trans-(3-(1,3-dihydroisoindol-2-yloxo)propenoyl)hydrazine] it is 0.3 µM. Still for that read-out and setting: under `C[C@H](NC(=O)OCc1ccccc1)C(=O)N[C@@H](C)C(=O)NN(CC(N)=O)C(=O)/C=C/C(=O)N(Cc1ccccc1)c1ccccc1` [Cbz-Ala-Ala-AAsn-CH═CH—CON(Bzl)Ph, N^2—(N-Benzyloxycarbonylalanylalanyl)-N^1-carbamoylmethyl-N^1-trans-(3-phenylbenzylcarbamoylpropenoyl)hydrazine] stands 0.07 µM.

In the case of `C[C@H](NC(=O)OCc1ccccc1)C(=O)N[C@@H](C)C(=O)NN(CC(N)=O)C(=O)/C=C/C(=O)N(Cc1ccccc1)Cc1ccc(F)cc1` [Cbz-Ala-Ala-AAsn-CH═CH—CON(Bzl-4-F)Bzl, N^2—(N-Benzyloxycarbonylalanylalanyl)-N^1-trans-(3-benzyl(4-fluorobenzyl)carbamoylpropenoyl)-N^1-carbamoylmethylhydrazine], the IC50 on S. mansoni legumain stood at 0.06 µM.

The compound `COc1ccc(CN(Cc2ccccc2)C(=O)/C=C/C(=O)N(CC(N)=O)NC(=O)[C@H](C)NC(=O)[C@H](C)NC(=O)OCc2ccccc2)cc1` [Cbz-Ala-Ala-AAsn-CH═CH—CON(Bzl-4-OMe)Bzl, N^2—(N-Benzyloxycarbonylalanylalanyl)-N^1-trans-(3-benzyl-(4-methoxybenzyl)carbamoyl)propenoyl-N^1-carbamoylmethylhydrazine] registered an IC50 at S. mansoni legumain of 0.09 µM.

As for `C[C@H](NC(=O)OCc1ccccc1)C(=O)N[C@@H](C)C(=O)NN(CC(N)=O)C(=O)/C=C/C(=O)N(Cc1ccco1)Cc1ccco1` [Cbz-Ala-Ala-AAsn-CH═CH—CON(CH2-2-furyl)2, N^2—(N-Benzyloxycarbonylalanylalanyl)-N^1-carbamoylmethyl-N^1-trans-(3-bis-(2-furylmethyl)carbamoylpropenoyl)hydrazine], on S. mansoni legumain, half-maximal inhibition (IC50) was put at 0.9 µM. On the same count and under the same terms, under `C[C@H](NC(=O)OCc1ccccc1)C(=O)N[C@@H](C)C(=O)NN(CC(N)=O)C(=O)/C=C/C(=O)N(C)CCc1ccccc1` [Cbz-Ala-Ala-AAsn-CH═CH—CON(CH3)CH2CH2Ph, N^2—(N-Benzyloxycarbonylalanylalanyl)-N^1-carbamoylmethyl-N^1-trans-(3-(Methylphenethylcarbamoyl)propenoyl)hydrazine] stands 0.6 µM; under `C[C@H](NC(=O)OCc1ccccc1)C(=O)N[C@@H](C)C(=O)NN(CC(N)=O)C(=O)/C=C/C(=O)N(C)c1ccccc1` [Cbz-Ala-Ala-AAsn-CH═CH—CON(CH3)Ph, N^2—(N-Benzyloxycarbonylalanylalanyl)-N^1-carbamoylmethyl-N^1-trans-(3-(methylphenylcarbamoyl)propenoyl)hydrazine], 0.06 µM. On the same count and under the same terms, the figure for `CCCCN(CCCC)C(=O)/C=C/C(=O)N(CC(N)=O)NC(=O)[C@H](C)NC(=O)[C@H](C)NC(=O)OCc1ccccc1` [Cbz-Ala-Ala-AAsn-CH═CH—CON(nBu)2, N^2—(N-Benzyloxycarbonylalanylalanyl)-N^1-carbamoylmethyl-N^1-trans-(3-dibutylcarbamoylpropenoyl)hydrazine] is 0.55 µM. With `CCN(CC)C(=O)/C=C/C(=O)N(CC(N)=O)NC(=O)[C@H](C)NC(=O)[C@H](C)NC(=O)OCc1ccccc1` [Cbz-Ala-Ala-AAsn-CH═CH—CONEt2, N^2—(N-Benzyloxycarbonylalanylalanyl)-N^1-carbamoylmethyl-N^1-trans-(3-diethylcarbamoylpropenoyl)hydrazine], at S. mansoni legumain (setting [1]), the IC50 was > 2 µM. On to `C[C@H](NC(=O)OCc1ccccc1)C(=O)N[C@@H](C)C(=O)NN(CC(N)=O)C(=O)/C=C/C(=O)NCc1ccc(F)cc1` [Cbz-Ala-Ala-AAsn-CH═CH—CONH-Bzl-4-F, N^2—(N-Benzyloxycarbonylalanylalanyl)-N^1-carbamoylmethyl-N^1-trans-(3-(4-fluorobenzyl)carbamoylpropenoyl)hydrazine], for which the IC50 against S. mansoni legumain worked out at 0.8 µM. Regarding `C[C@H](NC(=O)OCc1ccccc1)C(=O)N[C@@H](C)C(=O)NN(CC(N)=O)C(=O)/C=C/C(=O)NCc1ccccc1` [Cbz-Ala-Ala-AAsn-CH═CH—CONHBzl, N^2—(N-Benzyloxycarbonylalanylalanyl)-N^1-carbamoylmethyl-N^1-trans-(3-benzylcarbamoylpropenoyl)hydrazine], 1 µM corresponded to half-maximal inhibition against S. mansoni legumain (IC50). Same read-out and setting: under `C[C@H](NC(=O)OCc1ccccc1)C(=O)N[C@@H](C)C(=O)NN(CC(N)=O)C(=O)/C=C/C(=O)Nc1ccccc1` [Cbz-Ala-Ala-AAsn-CH═CH—CONHPh, N^2—(N-Benzyloxycarbonylalanylalanyl)-N^1-carbamoylmethyl-N^1-trans-(3-phenylcarbamoylpropenoyl)hydrazine] stands 0.7 µM. In the case of `C[C@H](NC(=O)OCc1ccccc1)C(=O)N[C@@H](C)C(=O)NN(CC(N)=O)C(=O)/C=C/C(=O)c1ccccc1` [Cbz-Ala-Ala-AAsn-CH═CH—COPh, trans-N^2—(N-Benzyloxycarbonylalanylalanyl)-N^1-carbamoyImethyl-N^1-trans-(3-benzoylpropenoyl)hydrazine], the IC50 entry against S. mansoni legumain (setting [1]) was “does not inhibit”; against S. mansoni legumain (S. mansoni legumain, 20 min preincubation, Cbz-Ala-Ala-Asn-AMC substrate, listed as —COPh), > 2 µM. `C[C@H](NC(=O)OCc1ccccc1)C(=O)N[C@@H](C)C(=O)NN(CC(N)=O)C(=O)/C=C/C(=O)N1CCCc2ccccc21` [N^2—(N-Benzyloxycarbonylalanylalanyl)-N^1-carbamoylmethyl-N^1-trans-(3-(3,4-dihydro-2H-quinolin-1-yloxo)propenoyl)hydrazine]: on S. mansoni legumain, the IC50 was found to be 0.07 µM.
